# Test results taken from patent US8754057B2, “Inhibition of apoptosis-specific eIF-5A(eIF-5A1″) with antisense oligonucleotides and siRNA as anti-inflammatory therapeutics” (Senesco Technologies, Inc., priority 2003, dated 2014).
# Tested on: lamina cribrosa cell line #506
# Test: TUNEL labeling of siRNA-transfected LC cells treated with TNF-α and camptothecin
# Assay type: cell-based, human
# Settings: LC #506, TNF-α and camptothecin 24 h
# Method: Lamina cribrosa cell line #506 cells were seeded at 7500 cells per well onto an 8-well culture slide. Three days later the LC cells were transfected with either apoptosis-specific eIF-5A siRNA #1 (SEQ ID NO:30) or control siRNA #5 (SEQ ID NO:34). 72 hours after transfection, the transfected cells were treated with 10 ng/ml TNF-α plus 50 μM camptothecin. Twenty-four hours later the cells were stained with Hoescht 33258 and DNA fragmentation was evaluated in situ using the terminal deoxynucleotidyl transferase-mediated dUTP-digoxigenin nick end labeling (TUNEL) method. Panel A represents the slide observed by fluorescence microscopy using a fluorescein filter to visualize TUNEL-labeling of the fragmented DNA of apoptotic cells. Panel B represents the same slide observed by through a UV filter to visualize the Hoescht-stained nuclei. The results are representative of two independent experiments. All pictures were taken at 400 times magnification.
# Transfected cells that had been treated with TNF-α and camptothecin for 24 hours were stained with Hoescht 33258 in order to determine the percentage of cells undergoing apoptosis. Briefly, cells were fixed with a 3:1 mixture of absolute methanol and glacial acetic acid and then incubated with Hoescht stain (0.5 μg/ml Hoescht 33258 in PBS). After a 10 minute incubation in the dark, the staining solution was discarded, the chambers separating the wells of the culture slide were removed, and the slide was washed 3 times for 1 minute with deionized water. After washing, a few drops of Mcllvaine's buffer (0.021 M citric acid, 0.058 M Na2HPO4.7H2O; pH 5.6) was added to the cells and overlaid with a coverslip. The stained cells were viewed under a fluorescent microscope using a UV filter. Cells with brightly stained or fragmented nuclei were scored as apoptotic. A minimum of 200 cells were counted per well. The DeadEnd™ Fluorometric TUNEL (Promega) was also used to detect the DNA fragmentation that is a characteristic feature of apoptotic cells. Following Hoescht staining, the culture slide was washed briefly with distilled water, and further washed by immersing the slide twice for 5 minutes in PBS (137 mM NaCl, 2.68 mM KCl, 1.47 mM KH2PO4, 8.1 mM Na2HPO4), blotting the slide on paper towel between washes. The cells were permeabilized by immersing them in 0.2% Triton X-100 in PBS for 5 minutes. The cells were then washed again by immersing the slide twice for 5 minutes in PBS and blotting the slide on paper towel between washes. 25 μl of equilibration buffer [200 mM potassium cacodylate (pH 6.6), 25 mM. Tris-HCl (pH 6.6), 0.2 mM dithiothreitol, 0.25 mg/ml bovine serum albumin, and 2.5 mM cobalt chloride] was added per well and incubated for 5 to 10 minutes. […] Any cells with brightly stained or fragmented nuclei were scored as apoptotic. […]
substance,measurement,setting,value
"siRNA #1: siRNA against human apoptosis-specific eIF-5A (SEQ ID NO:30); target 5′ AAAGGAATGACTTCCAGCTGA 3′ (SEQ ID NO: 81) (AAAGGAAUGACUUCCAGCUGATT; RNA, all phosphodiester, T or U not given here; listed as Homo sapiens)",LC cells positive for TUNEL staining,3 days after transfection,8%
same,protection from apoptosis relative to the control siRNA,TUNEL,greater than 80%
